The nature of series [1]: Inhibition of cytosolic PLA2alpha in human differentiated HL60 cells assessed as inhibition of A23187-induced [3H]-arachidonate release. In kind it is cell-based. The settings on record: HL-60.
The nature of series [2]: Inhibition of recombinant cytosolic PLA2alpha assessed as inhibition of cleavage of soluble fluorogenic substrate.
In the next series the test system is Hepatocyte. In words: Intrinsic clearance in rat hepatocytes. Format: ADME, cell-based, Liver.
A short description of series [3]: Clearance in rat at 2 mg/kg, iv. Also noted: dose 2 mg/kg, route intravenous. Particulars: in vivo. Format: ADME, organism-based.
A short description of series [4]: Half life in rat plasma at 2 mg/kg, iv. Also noted: dose 2 mg/kg, route intravenous. In kind it is ADME, organism-based.
Series [5] can be described thus: Volume of distribution at steady state in rat at 2 mg/kg, iv. In kind it is ADME, organism-based. On the set-up: dose 2 mg/kg, route intravenous. Particulars: in vivo, read-out: Vdss.

As a reminder, the IC50 is the concentration at which inhibition is half-maximal. As to `O=C(COc1ccc(SCCCCCc2ccccc2)cc1)c1nccs1`, the IC50 is greater than 10000 nM in series [1] and 1000 nM in series [2].

For `O=C(COc1ccc(SCCCCCc2ccccc2)cc1)c1ncc[nH]1`, the IC50 in series [2] was greater than 10000 nM.

Regarding `Cn1ccnc1C(=O)COc1ccc(SCCCCCc2ccccc2)cc1`, the IC50 in series [2] was greater than 10000 nM.

As to `Cn1c(C(=O)COc2ccc(SCCCCCc3ccccc3)cc2)nc2ccccc21`, the IC50 in series [2] is greater than 10000 nM.

`O=C(COc1ccc(SCCCCCc2ccccc2)cc1)c1nc2ccccc2s1`: the IC50 in series [2] is 1000 nM.

For `O=C(O)c1ccc2nc(C(=O)COc3ccc(SCCCCCc4ccccc4)cc3)[nH]c2c1`, the IC50 in series [1] worked out at 3700 nM; in series [2] it was 2700 nM.

As for `O=C(O)COc1ccc2nc(C(=O)COc3ccc(SCCCCCc4ccccc4)cc3)[nH]c2c1`, the IC50 in series [1] and in series [2] was greater than 10000 nM in each case.

A word on the clearance: it is the rate of elimination divided by the concentration. Higher therefore signals efficient removal. What is called half-life is the time needed for the level to fall by half in the phase considered. A low value points to rapid decline. Regarding `O=C(O)c1ccc2oc(C(=O)COc3ccc(SCCCCCc4ccccc4)cc3)nc2c1`, the IC50 in series [1] was determined as 3600 nM; in series [2] it was 140 nM. Also, in the series with Hepatocyte, the CL was 35 µL/min. The same compound gave a clearance in series [3] greater than 200 mL/min/kg. This compound also showed a half-life in series [4] of less than 0.2 h.

As for `O=C(O)c1ccc2nc(C(=O)COc3ccc(SCCCCCc4ccccc4)cc3)sc2c1`, the IC50 in series [1] came to 1600 nM; in series [2], 80 nM. The CL in the series with Hepatocyte was 28 µL/min.

As for `COc1ccc2nc(C(=O)COc3ccc(SCCCCCc4ccccc4)cc3)sc2c1`, in series [2], the IC50 is greater than 10000 nM.

For `Cc1nc(C(=O)COc2ccc(SCCCCCc3ccccc3)cc2)sc1C(=O)O`, the IC50 in series [1] came out at 1100 nM; in series [2], 300 nM. In addition, the CL with Hepatocyte worked out at 11 µL/min.

For `Cc1nc(C(=O)COc2ccc(SCCCCCc3ccccc3)cc2)sc1CCC(=O)O`, the IC50 in series [1] and in series [2] was 500 nM each time.

Consider `Cc1nc(C(=O)COc2ccc(SCCCCCc3ccccc3)cc2)sc1/C=C/C(=O)O`, for which the values for the IC50 in series [1] and in series [2] were 3000 nM and 4300 nM, respectively.

In the case of `Cc1nc(C(=O)COc2ccc(SCCCCCc3ccccc3)cc2)sc1CCCC(=O)O`, the IC50 amounted to 500 nM in series [1] and 80 nM in series [2]. In addition, in series [3], the clearance amounted to 71 mL/min/kg. Also, the Vd in series [5] is 0.4 L/kg. Also, the half-life in series [4] was 0.2 h.

As for `O=C(O)CCCc1csc(C(=O)COc2ccc(OCCCCCc3ccccc3)cc2)n1`, the figures for the IC50 in series [1] and in series [2] were 6000 nM and 2000 nM, respectively.

With `Cc1nc(C(=O)COc2ccc(SCCCCCc3ccccc3)cc2)sc1CCO`, the results for the IC50 in series [1] and in series [2] were 1300 nM and 280 nM, respectively. Moreover, the CL in the series on Hepatocyte worked out at 31 µL/min.

Consider `Cc1nc(C(=O)COc2ccc(OCCCCCc3ccccc3)cc2)sc1CCCC(=O)O`, for which the values for the concentration for half-maximal inhibition (IC50) in series [1] and in series [2] were 1200 nM and 240 nM, respectively. This compound displayed a CL with Hepatocyte of 20 µL/min.

In the case of `Cc1nc(C(=O)COc2ccc(SCc3ccccc3)cc2)sc1CCCC(=O)O`, the IC50 is 2000 nM in series [1] and 3000 nM in series [2].

In the case of `CCCCCCCCCCS(=O)(=O)c1ccc(OCC(=O)c2nc(C)c(CCCC(=O)O)s2)cc1`, the results for the IC50 in series [1] and in series [2] were 200 nM and 300 nM, respectively. The CL in the series with Hepatocyte came to 41 µL/min.

Take `CCCCCCCCCCSc1ccc(OCC(=O)c2nc(C)c(CCCC(=O)O)s2)cc1`: the IC50 in series [1] was 230 nM; in series [2] it was 40 nM.

As to `Cc1nc(C(=O)C(C)Oc2ccc(SCCCCCc3ccccc3)cc2)sc1CCCC(=O)O` (stereo unspecified), the IC50 in series [1] is 700 nM; in series [2] it was 200 nM.

Take `Cc1nc(C(=O)C(C)(C)Oc2ccc(SCCCCCc3ccccc3)cc2)sc1CCCC(=O)O`: the IC50 was greater than 10000 nM in series [1] and 6700 nM in series [2].

For the compound `CCC(Oc1ccc(SCc2ccc(Cl)cc2)cc1)C(=O)c1nc(C)c(CCCC(=O)O)s1` (stereo unspecified), the IC50 in series [2] was 7900 nM.

As for `Cc1nc(C(=O)C(Oc2ccc(SCCCCCc3ccccc3)cc2)C(C)C)sc1CCCC(=O)O` (stereo unspecified), the half-inhibitory concentration (IC50) turned out to be 5600 nM in series [1] and 4400 nM in series [2].

`Cc1nc(C(=O)C(Oc2ccc(SCCCCCc3ccccc3)cc2)c2ccccc2)sc1CCCC(=O)O` (stereo unspecified): the results for the half-inhibitory concentration (IC50) in series [1] and in series [2] were 3200 nM and 3600 nM, respectively.

Regarding `Cc1nc(C(=O)C(C)Oc2ccc(OCCCCCc3ccccc3)cc2)sc1CCCC(=O)O` (stereo unspecified), the IC50 in series [1] came to 2000 nM; in series [2] it was 700 nM. Further, the CL in the series on Hepatocyte amounted to 10 µL/min. For the same compound, in series [3], the clearance is 10.5 mL/min/kg. For the same compound, in series [5], the Vd came out at 0.35 L/kg. The compound also gave a half-life in series [4] of 1.25 h.

As to `Cc1nc(C(=O)C(C)Oc2ccc(SCc3ccc(Cl)cc3)cc2)sc1CCCC(=O)O` (stereo unspecified), the IC50 in series [1] and in series [2] was 1500 nM in each case. In series [3], this compound showed a clearance of 10.5 mL/min/kg. In addition, in series [5], the Vd was 0.55 L/kg. Besides, in series [4], the half-life was 1.15 h.

For `Cc1nc(C(=O)[C@H](C)Oc2ccc(SCCCCCc3ccccc3)cc2)sc1CCCC(=O)O`, in series [2], the half-maximal inhibitory concentration (IC50) was greater than 1000 nM.

As to `Cc1nc(C(=O)[C@@H](C)Oc2ccc(SCCCCCc3ccccc3)cc2)sc1CCCC(=O)O`, the IC50 in series [2] was 200 nM. This compound also registered a CL with Hepatocyte of 8 µL/min.

Regarding `O=C(COc1ccc(SCCCCCc2ccccc2)cc1)COc1ccc(C(=O)O)cc1`, the results for the concentration for half-maximal inhibition (IC50) in series [1] and in series [2] were 1500 nM and 80 nM, respectively.

The values above are taken from ChEMBL document CHEMBL1770053, “Design of novel and potent cPLA2α inhibitors containing an α-methyl-2-ketothiazole as a metabolically stable serine trap” (Bioorg Med Chem Lett, 2011).
